Measurements as given in US11040959B2, “Diprovocims: a new and potent class of TLR agonists” (The Scripps Research Institute, priority 2016, dated 2021).
pEC50: −log10 of the molar value. Read-outs that look alike come from different tables or passages of the source.

Columns and labels:
[1] = test system: mouse macrophages; test: stimulated release of TNF-α from mouse macrophages; assay type: cell-based; conditions: for EC50 / pEC50: Macrophage; for EC50: read-out: EC50 (nM) (mouse); for pEC50: Mus musculus
From the text: EC50 values are derived from dose-response curves for the stimulated release of TNF-α from differentiated THP-1 cells or mouse macrophages are shown beneath each appropriate structural formula of Compounds 8-12. Half maximal effective concentration (EC50) refers to the concentration of a drug, antibody or toxicant that induces a response halfway between the baseline and maximum after a specified exposure time. It is commonly used as a measure of a drug's potency.

[2] = test system: differentiated human THP-1 cells; test: stimulated release of TNF-α from differentiated human THP-1 cells (ELISA, dose-response); assay type: cell-based; conditions: for EC50 / pEC50: Homo sapiens; for EC50: read-out: EC50 (nM) (THP-1)
Procedure: A screening campaign was conducted with nearly 100,000 compounds [(a) Whitby et al., Acc. Chem. Res. 2012, 45:1698-1709; and (b) Boger et al., Angew. Chem. Int. Ed. 2003, 42:4138-4176], using a newly developed functional assay that measured the stimulated release of TNF-α from treated human THP-1 cells partially differentiated along the macrophage line [unpublished results of the inventors and co-workers]. […] The libraries screened in the efforts represent a unique compound collection populated by nontraditional compounds [(a) Whitby et al., Acc. Chem. Res. 2012, 45:1698-1709; and (b) Boger et al., Angew. Chem. Int. Ed. 2003, 42:4138-4176] designed to target protein-protein [(a) Shaginian et al., J. Am. Chem. Soc. 2009, 131:5564-5572; and (b) Whitby et al., J. Am. Chem. Soc. 2011, 133:10184-10194] or protein-DNA interactions [Stover et al., J. Am. Chem. Soc. 2009, 131:3342-3348] as well as the major enzyme classes [Otrubova et al., Bioorg. Med. Chem. Lett. 2014, 24:3807-3813].
Hits were confirmed in an ELISA assay for stimulated TNF-α release from human PMA differentiated THP-1 cells and this assay was used for establishing dose-response curves and measured EC50 values.

[3] = table of 140-146 (four lipid side chains), mouse macrophages
[4] = THP-1, table of 140-146 (four lipid side chains), human THP-1 cells
[5] = Table 7, TNF-α release from mouse macrophages
[6] = THP-1, Table 7, TNF-α release from human THP-1 cells
[7] = Table 3, TNF-α release from mouse macrophages
[8] = THP-1, Table 3, TNF-α release from human THP-1 cells
[9] = Table 1, TNF-α release from mouse macrophages
[10] = THP-1, running text, read-out: EC50, stimulated release of TNF-α from differentiated human THP-1 cells

## CCCCCCCCCCCCNC(=O)[C@@H]1CN(C(=O)c2ccc(C(=O)N3C[C@@H](C(=O)NCCCCCCCCCCCC)[C@H](C(=O)NCCCCCCCCCCCC)C3)cc2)C[C@H]1C(=O)NCCCCCCCCCCCC [Compound 142, (3S,3′S,4S,4′S)-1,1′-Terephthaloylbis(N^3,N^4-didodecylpyrrolidine-3,4-dicarboxamide)]
[1]; [3]
  EC50: > 5000 nM
[2]; [4]
  EC50: > 5000 nM

## O=C(NCCc1ccc(F)cc1)[C@@H]1CN(C(=O)c2ccc3cc(C(=O)N4C[C@@H](C(=O)NCCc5ccc(F)cc5)[C@H](C(=O)NCCc5ccc(F)cc5)C4)ccc3c2)C[C@H]1C(=O)NCCc1ccc(F)cc1 [Compound 109, (3S,3′S,4S,4′S)-1,1′-(Naphthalene-2,6-dicarbonyl)-bis(N^3,N^4-bis(4-fluorophenethyl)-pyrrolidine-3,4-dicarboxamide)]
[1]; [5]
  EC50: > 5000 nM
[2]; [6]
  EC50: > 5000 nM

## COc1cc(C(=O)N2C[C@@H](C(=O)N[C@H]3C[C@@H]3c3ccccc3)[C@H](C(=O)N[C@H]3C[C@@H]3c3ccccc3)C2)ccc1C(=O)N1C[C@@H](C(=O)N[C@H]2C[C@@H]2c2ccccc2)[C@H](C(=O)N[C@H]2C[C@@H]2c2ccccc2)C1 [Compound 57, (3S,3′S,4S,4′S)-1,1′-(2-Methoxy-terephthaloyl)-bis(N^3,N^4-bis((1S,2R)-2-phenylcyclopropyl)-pyrrolidine-3,4-dicarboxamide)]
[1]; [7]
  EC50: 250 nM
[2]; [8]
  EC50: 30 nM

## Cc1cc(C(=O)N2C[C@@H](C(=O)N[C@H]3C[C@@H]3c3ccccc3)[C@H](C(=O)N[C@H]3C[C@@H]3c3ccccc3)C2)c(C)cc1C(=O)N1C[C@@H](C(=O)N[C@H]2C[C@@H]2c2ccccc2)[C@H](C(=O)N[C@H]2C[C@@H]2c2ccccc2)C1 [Compound 63, (3S,3′S,4S,4′S)-1,1′-(2,5-Dimethylterephthaloyl)-bis(N^3,N^4-bis((1S,2R)-2-phenylcyclopropyl)pyrrolidine-3,4-dicarboxamide)]
[1]; [7]
  EC50: > 5000 nM
[2]; [8]
  EC50: > 5000 nM

## O=C(NCCc1ccc(F)cc1)[C@@H]1CN(C(=O)/C=C/C(=O)N2C[C@@H](C(=O)NCCc3ccc(F)cc3)[C@H](C(=O)NCCc3ccc(F)cc3)C2)C[C@H]1C(=O)NCCc1ccc(F)cc1 [Compound 101, (3S,3′S,4S,4′S)-1,1′-Fumaroylbis-(N^3,N^4-bis(4-fluorophnethyl)pyrrolidine-3,4-dicarboxamide)]
[1]; [5]
  EC50: > 5000 nM
[2]; [6]
  EC50: > 5000 nM

## O=C(N[C@H]1C[C@@H]1c1ccccc1)[C@@H]1CN(C(=O)c2ccc(C(=O)N3C[C@@H](C(=O)N[C@H]4C[C@@H]4c4ccccc4)[C@H](C(=O)N[C@H]4C[C@@H]4c4ccccc4)C3)c(Br)c2)C[C@H]1C(=O)N[C@H]1C[C@@H]1c1ccccc1 [Compound 58, (3S,3′S,4S,4′S)-1,1′-(2-Bromoterephthaloyl)-bis(N^3,N^4-bis((1S,2R)-2-phenylcyclopropyl)pyrrolidine-3,4-dicarboxamide)]
[1]; [7]
  EC50: 10 nM
[2]; [8]
  EC50: 5 nM

## O=C(N[C@H]1C[C@@H]1c1ccccc1)[C@@H]1CN(C(=O)C/C=C/CC(=O)N2C[C@@H](C(=O)N[C@H]3C[C@@H]3c3ccccc3)[C@H](C(=O)N[C@H]3C[C@@H]3c3ccccc3)C2)C[C@H]1C(=O)N[C@H]1C[C@@H]1c1ccccc1 [Compound 37, (3S,3′S,4S,4′S)-1,1′-((E)-Hex-3-enedoyl)bis-(N^3,N^4-bis((1S,2R)-2-phenylcyclopropyl)pyrrolidine-3,4-dicarboxamide)]
[1]; [9]
  EC50: > 5000 nM
[2]; THP-1, Table 1, TNF-α release from human THP-1 cells
  EC50: > 5000 nM

## CCCCCCCCCCCCCCNC(=O)[C@@H]1CN(C(=O)c2ccc(C(=O)N3C[C@@H](C(=O)NCCCCCCCCCCCCCC)[C@H](C(=O)NCCCCCCCCCCCCCC)C3)cc2)C[C@H]1C(=O)NCCCCCCCCCCCCCC [Compound 141, (3S,3′S,4S,4′S)-1,1′-Terephthaloylbis(N^3,N^4-ditetradecylpyrrolidine-3,4-dicarboxamide)]
[1]; [3]
  EC50: > 5000 nM
[2]; [4]
  EC50: > 5000 nM

## O=C(NCCc1cccc(F)c1)[C@H]1CN(C(=O)c2ccc(C(=O)N3C[C@H](C(=O)NCCc4cccc(F)c4)[C@@H](C(=O)NCCc4cccc(F)c4)C3)cc2)C[C@@H]1C(=O)NCCc1cccc(F)c1 (racemic) [Compound 84, 1,1′-Terephthaloylbis(N^3,N^4-bis(3-fluoro-phenethyl)pyrrolidine-trans-3,4-dicarboxamide)]
[2]; THP-1, Table 5 footnote, racemates, TNF-α release from human differentiated THP-1 cells, read-out: EC50
  pEC50: 6.00
[2]; [10]
  pEC50: 6.00
[2]; human THP-1 cells, racemates
  fold less active (3- vs 4-fluorophenethylamide): > 10 fold

## O=C(NCCc1ccc(F)cc1)[C@H]1CN(C(=O)c2ccc(C(=O)N3C[C@H](C(=O)NCCc4ccc(F)cc4)[C@@H](C(=O)NCCc4ccc(F)cc4)C3)cc2)C[C@@H]1C(=O)NCCc1ccc(F)cc1 [Compound 98, (3R,3′R,4R,4′R)-1,1′-Terephthaloyl-bis(N^3,N^4-bis-(4-fluorophenethyl)pyrrolidine-3,4-dicarboxamide)]
[2]; THP-1, running text b169, read-out: EC50, stimulated release of TNF-α from human THP-1 cells
  pEC50: < 5.30
[2]; human THP-1 cells
  fold less potent than the all S enantiomer 4: > 100 fold

## O=C(NCCc1ccc(F)cc1)[C@H]1CN(C(=O)c2ccc(C(=O)N3C[C@@H](C(=O)NCCc4ccc(F)cc4)[C@H](C(=O)NCCc4ccc(F)cc4)C3)cc2)C[C@@H]1C(=O)NCCc1ccc(F)cc1 [Compound 99, (3S,4S)-1-(4-((3R,4R)-3,4-Bis((4-fluorophen-ethyl)carbamoyl)pyrrolidine-1-carbonyl)benzoyl)—N^3,N^4-bis(4-fluorophenethyl)pyrrolidine-3,4-dicarboxamide]
[2]; [10]
  pEC50: 7.15

## O=C(NCCc1ccccc1)[C@@H]1CN(C(=O)c2ccc(C(=O)N3C[C@@H](C(=O)NCCc4ccccc4)[C@H](C(=O)N[C@H]4C[C@@H]4c4ccccc4)C3)cc2)C[C@H]1C(=O)NCCc1ccccc1 (relative stereo) [Compound 9]
[2]; tested up to 5 μM where stated
  activity in stimulating TNF-α release from human THP-1 cells (in words): inactive

## O=C(N[C@H]1C[C@@H]1c1ccccc1)[C@H]1CCN(C(=O)c2ccc(C(=O)N3C[C@@H](C(=O)N[C@H]4C[C@@H]4c4ccccc4)[C@H](C(=O)N[C@H]4C[C@@H]4c4ccccc4)C3)cc2)C1 [Compound 29, (3S,4S)—N^3,N^4-Bis((1S,2R)-2-phenyl-cyclopropyl)-1-(4-((S)-3-(((1S,2R)-2-phenyl-cyclopropyl)-carbamoyl)-pyrrolidine-1-carbonyl)-benzoyl)pyrrolidine-3,4-dicarboxamide]
[2]; [10]
  pEC50: 6.70
[2]; human THP-1 cells
  fold less active/potent than diprovocim-1 (3): 2000 fold

## O=C(NCCc1ccccc1)[C@@H]1CN(C(=O)c2ccc(C(=O)N3C[C@@H](C(=O)NCCc4ccccc4)[C@H](C(=O)N[C@H]4C[C@@H]4c4ccccc4)C3)cc2)C[C@H]1C(=O)N[C@H]1C[C@@H]1c1ccccc1 (stereo in doubt) [Compound 10, trans,trans-1, 1′-Terephthaloylbis(N^3-phenethyl-N^4-(trans-2-phenylcyclopropyl)pyrrolidine-3,4-dicarboxamide)]
[2]; [10]
  pEC50: 7.10

## O=C(N[C@H]1C[C@@H]1c1ccccc1)[C@@H]1CN(C(=O)c2ccc(C(=O)N3C[C@@H](C(=O)N[C@H]4C[C@@H]4c4ccccc4)[C@H](C(=O)N[C@H]4C[C@@H]4c4ccccc4)C3)cc2)C[C@H]1C(=O)N[C@H]1C[C@@H]1c1ccccc1 [Compound 3, (3S,3′S,4S,4′S)-1,1′-Terephthaloylbis(N^3,N^4-bis((1S,2R)-2-phenylcyclopropyl)pyrrolidine-3,4-dicarboxamide)]
[1]; [9]
  EC50: 1 nM
[1]; Scheme 1, footnote b, read-out: EC50 TNF-α release from mouse macrophages
  pEC50: 9.00
[1]; read-out: EC50, stimulated release of TNF-α from mouse macrophages
  pEC50: 9.00

## O=C(CCN(CCC(=O)N[C@H]1C[C@@H]1c1ccccc1)C(=O)c1ccc(C(=O)N(CCC(=O)N[C@H]2C[C@@H]2c2ccccc2)CCC(=O)N[C@H]2C[C@@H]2c2ccccc2)cc1)N[C@H]1C[C@@H]1c1ccccc1 [Compound 34, N^1,N^1,N^4,N^4-Tetrakis(3-oxo-3-(((1S,2R)-2-phenyl-cyclopropyl)amino)propyl)terephthalamide]
[1]; tested up to 5 μM where stated
  activity in stimulating TNF-α release from mouse macrophages (in words): inactive

## O=C(NCCc1ccc(F)cc1)[C@H]1CN(C(=O)c2ccc(C(=O)N3C[C@H](C(=O)NCCc4ccc(F)cc4)[C@@H](C(=O)NCCc4ccc(F)cc4)C3)cc2)C[C@@H]1C(=O)NCCc1ccc(F)cc1 (racemic) [Compound 69, 1,1′-Terephthaloylbis(N^3,N^4-bis(4-fluoro-phenethyl)-yrrolidine-trans-3,4-dicarboxamide)]
[2]; [10]
  pEC50: 7.00
